Assay: Binding affinity at Sigma receptor type 1, displacement of [3H](+)-pentazocine from guinea pig brain membranes

SMILES	Ki [nM]
C[C@@H]1[C@@H]2Cc3ccc(O)cc3[C@@]1(C)CCN2Cc1ccc(Br)cc1 [(2S,6S,11S)-3-(4-Bromo-benzyl)-6,11-dimethyl-1,2,3,4,5,6-hexahydro-2,6-methano-benzo[d]azocin-8-ol]	3.11
C[C@@H]1[C@@H]2Cc3ccc(O)cc3[C@@]1(C)CCN2Cc1ccc(N(C)C)cc1 [(2S,6S,11S)-3-(4-Dimethylamino-benzyl)-6,11-dimethyl-1,2,3,4,5,6-hexahydro-2,6-methano-benzo[d]azocin-8-ol]	102
C[C@@H]1[C@@H]2Cc3ccc(O)cc3[C@@]1(C)CCN2Cc1cccc(I)c1 [(2S,6S,11S)-3-(3-Iodo-benzyl)-6,11-dimethyl-1,2,3,4,5,6-hexahydro-2,6-methano-benzo[d]azocin-8-ol]	27.2
C[C@@H]1[C@@H]2Cc3ccc(O)cc3[C@@]1(C)CCN2Cc1ccc(Cl)cc1 [(2S,6S,11S)-3-(4-Chloro-benzyl)-6,11-dimethyl-1,2,3,4,5,6-hexahydro-2,6-methano-benzo[d]azocin-8-ol]	2.37
Cc1ccc(CN2CC[C@]3(C)c4cc(O)ccc4C[C@H]2[C@H]3C)cc1 [(2S,6S,11S)-6,11-Dimethyl-3-(4-methyl-benzyl)-1,2,3,4,5,6-hexahydro-2,6-methano-benzo[d]azocin-8-ol]	2.08
Cc1ccccc1CN1CC[C@]2(C)c3cc(O)ccc3C[C@H]1[C@H]2C [(2S,6S,11S)-6,11-Dimethyl-3-(2-methyl-benzyl)-1,2,3,4,5,6-hexahydro-2,6-methano-benzo[d]azocin-8-ol]	12.8
CC(=O)Nc1ccc(CN2CC[C@]3(C)c4cc(O)ccc4C[C@H]2[C@H]3C)cc1 [N-[4-((2S,6S,11S)-8-Hydroxy-6,11-dimethyl-1,2,5,6-tetrahydro-4H-2,6-methano-benzo[d]azocin-3-ylmethyl)-phenyl]-acetamide]	47
C[C@@H]1[C@@H]2Cc3ccc(O)cc3[C@@]1(C)CCN2Cc1ccc(N)cc1 [(2S,6S,11S)-3-(4-Amino-benzyl)-6,11-dimethyl-1,2,3,4,5,6-hexahydro-2,6-methano-benzo[d]azocin-8-ol]	16.8
C[C@@H]1[C@@H]2Cc3ccc(O)cc3[C@@]1(C)CCN2Cc1ccc([N+](=O)[O-])cc1 [(2S,6S,11S)-6,11-Dimethyl-3-(4-nitro-benzyl)-1,2,3,4,5,6-hexahydro-2,6-methano-benzo[d]azocin-8-ol]	2.19
C[C@@H]1[C@@H]2Cc3ccc(O)cc3[C@@]1(C)CCN2Cc1ccc(C(C)(C)C)cc1 [(2S,6S,11S)-3-(4-tert-Butyl-benzyl)-6,11-dimethyl-1,2,3,4,5,6-hexahydro-2,6-methano-benzo[d]azocin-8-ol]	1070
C[C@@H]1[C@@H]2Cc3ccc(O)cc3[C@@]1(C)CCN2Cc1ccc(F)cc1 [(2S,6S,11S)-3-(4-Fluoro-benzyl)-6,11-dimethyl-1,2,3,4,5,6-hexahydro-2,6-methano-benzo[d]azocin-8-ol]	0.97
C[C@@H]1[C@@H]2Cc3ccc(O)cc3[C@@]1(C)CCN2Cc1ccc(I)c([N+](=O)[O-])c1 [(2S,6S,11S)-3-(4-Iodo-3-nitro-benzyl)-6,11-dimethyl-1,2,3,4,5,6-hexahydro-2,6-methano-benzo[d]azocin-8-ol]	386
C[C@@H]1[C@@H]2Cc3ccc(O)cc3[C@@]1(C)CCN2Cc1ccc(C#N)cc1 [4-((2S,6S,11S)-8-Hydroxy-6,11-dimethyl-1,2,5,6-tetrahydro-4H-2,6-methano-benzo[d]azocin-3-ylmethyl)-benzonitrile]	1.53
COc1ccc(CN2CC[C@]3(C)c4cc(O)ccc4C[C@H]2[C@H]3C)cc1 [(2S,6S,11S)-3-(4-Methoxy-benzyl)-6,11-dimethyl-1,2,3,4,5,6-hexahydro-2,6-methano-benzo[d]azocin-8-ol]	2.89
C[C@@H]1[C@@H]2Cc3ccc(O)cc3[C@@]1(C)CCN2Cc1ccc(C(F)(F)F)cc1 [(2S,6S,11S)-6,11-Dimethyl-3-(4-trifluoromethyl-benzyl)-1,2,3,4,5,6-hexahydro-2,6-methano-benzo[d]azocin-8-ol]	20.5
C[C@@H]1[C@@H]2Cc3ccc(O)cc3[C@@]1(C)CCN2Cc1ccccc1I [(2S,6S,11S)-3-(2-Iodo-benzyl)-6,11-dimethyl-1,2,3,4,5,6-hexahydro-2,6-methano-benzo[d]azocin-8-ol]	930
C[C@@H]1[C@@H]2Cc3ccc(O)cc3[C@@]1(C)CCN2Cc1ccc(I)cc1 [(2S,6S,11S)-3-(4-Iodo-benzyl)-6,11-dimethyl-1,2,3,4,5,6-hexahydro-2,6-methano-benzo[d]azocin-8-ol]	16.5
C[C@@H]1[C@@H]2Cc3ccc(O)cc3[C@@]1(C)CCN2Cc1ccccc1F [(2S,6S,11S)-3-(2-Fluoro-benzyl)-6,11-dimethyl-1,2,3,4,5,6-hexahydro-2,6-methano-benzo[d]azocin-8-ol]	1.45

Reference: BindingDB's records for doi:10.1021/jm00003a019 (Research Triangle Institute, 1995)
